From article PMC3353862
≈ marks a conversion by molar mass, not a printed value. Where two headings read alike, the source gives them in different places.

Tests used:
M. catarrhalis [1] = conditions: Moraxella. catarrhalis; cited from earlier work
E. coli tolC mutants [2] = conditions: cited from earlier work
[3] = test system: E. coli modified with PMBN; conditions: cited from earlier work
H. influenzae [4] = conditions: Haemophilus influenzae; cited from earlier work
S. pneumoniae [5] = conditions: cited from earlier work
E. faecalis [6] = conditions: cited from earlier work
S. aureus [7] = conditions: cited from earlier work
[8] = test system: bacterial protein synthesis (aminoacylation/translation system); experiment: aminoacylation/translation (A/T) assay; type: biochemical
H. influenzae [9] = experiment: Broth microdilution MIC testing; type: cell-based, Haemophilus influenzae; conditions: for MIC H. flu: H. influenzae; for MIC: Haemophilus influenzae, read-out: MIC H. flu
panel of bacteria = experiment: Antibacterial activity against the panel of bacteria (MIC, overall); type: cell-based; for MIC (antibacterial activity grade): key: +: poor; ++: moderate; +++: good antibacterial activity
S. aureus [10] = experiment: Broth microdilution MIC testing; type: cell-based, Staphylococcus aureus; conditions: for MIC: Staphylococcus aureus, read-out: MIC S. aureus
[11] = test system: E. coli modified with PMBN; experiment: Broth microdilution MIC testing; type: cell-based, Escherichia coli; conditions: for MIC E. coli +PMBP: E. coli modified with PMBN; for MIC: Escherichia coli, read-out: MIC E. coli +PMBP
S. pneumoniae [12] = experiment: Broth microdilution MIC testing; type: cell-based, Streptococcus pneumoniae; conditions: for MIC S. pneumo: S. pneumoniae; for MIC: Streptococcus pneumoniae, read-out: MIC S. pneumo
M. catarrhalis [13] = experiment: Broth microdilution MIC testing; type: cell-based, Moraxella catarrhalis; conditions: for MIC: Moraxella catarrhalis
E. coli tolC mutants [14] = experiment: Broth microdilution MIC testing; type: cell-based, Escherichia coli; conditions: for MIC E. coli tolC: E. coli tolC mutants; for MIC: Escherichia coli, read-out: MIC E. coli tolC
E. faecalis [15] = experiment: Broth microdilution MIC testing; type: cell-based, Enterococcus faecalis; conditions: for MIC E. fae: E. faecalis; for MIC: Enterococcus faecalis, read-out: MIC E. fae
[16] = original hits retested, read-out: IC50 (retested in the A/T assay)
[17] = A/T assay, Table 1, read-out: IC50

SMILES | MIC H. flu (H. influenzae [9]) | MIC (antibacterial activity grade) (panel of bacteria; Table 3) | MIC S. aureus (S. aureus [10]) | MIC E. coli +PMBP [11] | MIC S. pneumo (S. pneumoniae [12]) | MIC M. cat (M. catarrhalis [13]) | IC50 [8, 17] | MIC E. coli tolC (E. coli tolC mutants [14]) | MIC E. fae (E. faecalis [15]) | MIC (H. influenzae [9]) | MIC (S. aureus [10]) | MIC [11] | MIC (S. pneumoniae [12]) | MIC (M. catarrhalis [13]) | MIC (E. coli tolC mutants [14]) | MIC (E. faecalis [15]) | other results
Oc1nc(-c2ccccn2)nc2c1CN(Cc1cccc(F)c1)CC2 [Compound 321525] |  |  |  |  |  |  |  |  |  |  |  |  |  |  |  |  | MIC (M. catarrhalis [1]): 0.25 µg/mL (≈ 0.743 µM); MIC (E. coli tolC mutants [2]): 8 µg/mL (≈ 23.8 µM); MIC [3]: 32 µg/mL (≈ 95.1 µM); MIC (H. influenzae [4]): 4 µg/mL (≈ 11.9 µM); MIC (S. pneumoniae [5]): 8 µg/mL (≈ 23.8 µM); MIC (E. faecalis [6]): 32 µg/mL (≈ 95.1 µM); MIC (S. aureus [7]): 32 µg/mL (≈ 95.1 µM); IC50 [8, 16]: 2800 nM
COc1cccc(CN2CCc3nc(-c4ccccn4)nc(O)c3C2)c1 [Compound 321528] |  |  |  |  |  |  |  |  |  |  |  |  |  |  |  |  | MIC (M. catarrhalis [1]): 2 µg/mL (≈ 5.74 µM); MIC (E. coli tolC mutants [2]): 128 µg/mL (≈ 367 µM); MIC [3]: 32 µg/mL (≈ 91.8 µM); MIC (H. influenzae [4]): 8 µg/mL (≈ 23 µM); MIC (S. pneumoniae [5]): 32 µg/mL (≈ 91.8 µM); MIC (E. faecalis [6]): 128 µg/mL (≈ 367 µM); MIC (S. aureus [7]): > 128 µg/mL; IC50 [8, 16]: 1200 nM
CC(C)Oc1ccc(CN2CCc3nc(-c4ccccn4)[nH]c(=O)c3C2)cc1 [Compound 323365] | 4 µg/mL (≈ 10.6 µM) | +++ | 8 µg/mL (≈ 21.3 µM) | 4 µg/mL (≈ 10.6 µM) | 4 µg/mL (≈ 10.6 µM) | ≤0.12 µg/mL | 2270 nM | 4 µg/mL (≈ 10.6 µM) | 16 µg/mL (≈ 42.5 µM) |  |  |  |  |  |  |  | 
CC(C)(C)Oc1ccc(CN2CCc3nc(-c4ccccn4)[nH]c(=O)c3C2)cc1 [Compound 323366] | 4 µg/mL (≈ 10.2 µM) | +++ | 8 µg/mL (≈ 20.5 µM) | 2 µg/mL (≈ 5.12 µM) | 2 µg/mL (≈ 5.12 µM) | ≤0.12 µg/mL | 2470 nM | 4 µg/mL (≈ 10.2 µM) | 8 µg/mL (≈ 20.5 µM) |  |  |  |  |  |  |  | 
O=c1[nH]c(-c2ccccn2)nc2c1CN(Cc1cccc(Br)c1Br)CC2 [Compound 323367] | 1 µg/mL (≈ 2.1 µM) | +++ | 8 µg/mL (≈ 16.8 µM) | 8 µg/mL (≈ 16.8 µM) | 2 µg/mL (≈ 4.2 µM) | ≤0.12 µg/mL | 1890 nM | 2 µg/mL (≈ 4.2 µM) | 4 µg/mL (≈ 8.4 µM) |  |  |  |  |  |  |  | 
O=C(Nc1ccc(Cl)cc1)N1CCc2nc(-c3ccccn3)[nH]c(=O)c2C1 [Compound 323368] |  |  |  |  |  |  | 470 nM |  |  | > 128 µg/mL | > 128 µg/mL | > 128 µg/mL | > 128 µg/mL | > 128 µg/mL | > 128 µg/mL | > 128 µg/mL | antibacterial activity (panel of bacteria; panel of bacteria): complete loss of antibacterial activity
O=c1[nH]c(-c2ccccn2)nc2c1CN(CCc1ccc(Cl)cc1)CC2 [Compound 323370] |  |  |  |  |  |  | 280 nM |  |  | 2 µg/mL (≈ 5.45 µM) | 16 µg/mL (≈ 43.6 µM) | 8 µg/mL (≈ 21.8 µM) | 4 µg/mL (≈ 10.9 µM) | ≤ 0.12 µg/mL | 8 µg/mL (≈ 21.8 µM) | 16 µg/mL (≈ 43.6 µM) | MIC (antibacterial activity grade) (panel of bacteria; Table 2): +++
CC1CN(Cc2ccc(Cl)cc2)Cc2c1nc(-c1ccccn1)[nH]c2=O (stereo not shown) [Compound 332054] |  | +++ |  |  |  |  | 7400 nM |  |  | 1 µg/mL (≈ 2.73 µM) | 4 µg/mL (≈ 10.9 µM) | 1 µg/mL (≈ 2.73 µM) | 2 µg/mL (≈ 5.45 µM) | ≤ 0.12 µg/mL | 2 µg/mL (≈ 5.45 µM) | 8 µg/mL (≈ 21.8 µM) | 
O=c1[nH]c(-c2ccccn2)nc2c1CCN(Cc1ccc(Cl)cc1)CC2 [Compound 332058] |  |  |  |  |  |  | 560 nM |  |  | 0.5 µg/mL (≈ 1.36 µM) | 16 µg/mL (≈ 43.6 µM) | 4 µg/mL (≈ 10.9 µM) | 2 µg/mL (≈ 5.45 µM) | ≤ 0.12 µg/mL | 4 µg/mL (≈ 10.9 µM) | 16 µg/mL (≈ 43.6 µM) | MIC (antibacterial activity grade) (panel of bacteria; Table 2): +++
